Patent US20250353819A1, “ARYL HYDANTOIN COMPOUNDS AND METHODS OF USE” (priority 2022, published 2025)
Values joined by “and” are separate entries in the source; they are usually repeats but may differ in a detail not shown here. Identical values can stand only once. Like-named read-outs stand apart in the source and are kept apart here.

Key:
[1] = Stability in rat cryopreserved hepatocytes; type: in vitro ADME; conditions: Rat cryopreserved hepatocytes
[2] = Stability in mouse cryopreserved hepatocytes; type: in vitro ADME
[3] = Stability in human cryopreserved hepatocytes; type: in vitro ADME
[4] = Partition coefficient (Log D) by gradient HPLC; type: physicochemical; conditions: pH 7.4, chromatographic estimate; read-out: gLogD7.4
Text: Partition Coefficient. Partition coefficient values (Log D) of the test compounds were estimated by correlation of their chromatographic retention properties against the characteristics of a series of standard compounds with known partition coefficient values using gradient HPLC (modification of a method reported by Lombardo et al., 2001).

[5] = Plasma protein binding, dog plasma; type: in vitro ADME; conditions: read-out: % bound (converted)
[6] = test system: S. mansoni; experiment: Antischistosomal screen in S. mansoni-infected mice; type: in vivo, Schistosoma mansoni; conditions: Schistosoma mansoni, single oral dose, mouse model
Text: Antischistosomal Screen. […] As described by Lombardo et al. (2019), cercariae of S. mansoni were obtained from infected Biomphalaria glabrata. By way of example, NMRI mice were infected subcutaneously with approximately 100 S. mansoni cercariae. […] Untreated mice (n=8) served as controls. At 21 d post-treatment, animals were killed by the CO2 method and dissected. Worms were removed by picking, then sexed and counted.

[7] = target: CYP 1A2 (Homo sapiens (Human), UniProt P05177); experiment: CYP inhibition in human liver microsomes, 1A2; type: in vitro ADME
CYP 1A2, sequence (P05177 whole entry): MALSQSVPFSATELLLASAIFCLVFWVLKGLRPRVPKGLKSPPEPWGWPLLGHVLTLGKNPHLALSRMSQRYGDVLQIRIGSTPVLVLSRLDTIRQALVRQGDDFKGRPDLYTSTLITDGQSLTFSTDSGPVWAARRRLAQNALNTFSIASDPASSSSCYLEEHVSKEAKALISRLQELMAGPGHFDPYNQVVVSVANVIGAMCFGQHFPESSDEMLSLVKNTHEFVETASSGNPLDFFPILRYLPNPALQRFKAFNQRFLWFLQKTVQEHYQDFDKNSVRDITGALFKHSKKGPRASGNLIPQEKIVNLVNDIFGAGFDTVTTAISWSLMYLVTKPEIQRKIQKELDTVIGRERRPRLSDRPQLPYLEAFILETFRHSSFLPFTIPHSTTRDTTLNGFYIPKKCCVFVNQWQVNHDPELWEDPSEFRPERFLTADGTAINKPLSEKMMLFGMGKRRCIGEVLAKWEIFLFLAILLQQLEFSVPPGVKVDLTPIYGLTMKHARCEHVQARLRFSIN

[8] = target: CYP 3A4 (Homo sapiens (Human), UniProt P08684); experiment: CYP inhibition in human liver microsomes, 3A4
CYP 3A4, sequence (P08684 whole entry): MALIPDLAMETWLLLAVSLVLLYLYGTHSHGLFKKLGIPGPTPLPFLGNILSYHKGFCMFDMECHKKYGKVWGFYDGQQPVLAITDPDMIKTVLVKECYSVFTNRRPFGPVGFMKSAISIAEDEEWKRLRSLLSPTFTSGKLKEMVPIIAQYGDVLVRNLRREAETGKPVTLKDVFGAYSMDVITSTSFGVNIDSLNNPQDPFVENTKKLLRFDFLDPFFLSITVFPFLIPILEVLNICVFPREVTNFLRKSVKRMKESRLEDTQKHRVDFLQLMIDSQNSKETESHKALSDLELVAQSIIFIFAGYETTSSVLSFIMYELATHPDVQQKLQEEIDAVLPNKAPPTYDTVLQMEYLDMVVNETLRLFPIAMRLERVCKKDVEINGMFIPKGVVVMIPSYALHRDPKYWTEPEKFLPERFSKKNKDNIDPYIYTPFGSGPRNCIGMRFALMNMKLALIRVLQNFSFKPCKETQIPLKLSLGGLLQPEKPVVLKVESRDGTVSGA

[9] = Mouse exposure / pharmacokinetic studies; type: in vivo, mice
[10] = Plasma protein binding, rat plasma; type: in vitro ADME; conditions: read-out: % bound (converted)
[11] = In vitro metabolic stability, human liver microsomes; type: in vitro ADME; conditions: human liver microsomes; read-out: h CLint
Description: In Vitro Metabolic Stability. As described by Charman et al. (2020), metabolic stability assays were performed by incubating test compounds in liver microsomes at 37° C. and 0.4 mg/mL protein concentration. The metabolic reaction was initiated by the addition of an NADPH-regenerating system and quenched at various time points over a 60 min incubation period by the addition of acetonitrile containing diazepam as internal standard. Control samples (containing no NADPH) were included (and quenched at 2, 30 and 60 min) to monitor for potential degradation in the absence of cofactor.

[12] = Pharmacokinetics in male Sprague Dawley rats; type: in vivo, rat; conditions: IV 1 mg/kg; for clearance / Vd / AUC: male, Sprague Dawley, rat, in vivo, iv, 1 mg/kg, rats; for AUC: read-out: Plasma AUCIV
Description: IV and oral formulations were prepared using the same method. On the day of dosing the solid compound was dissolved in DMSO prior to addition of a saline solution (0.9% w/v). The samples were then mixed using vortexing producing colourless solutions. The IV formulation was filtered through a 0.22 μm syringe filter prior to dosing and the oral formulation was dosed without filtration.
Samples of arterial blood were collected up to 168 h post-dose. Urine samples were not collected as animals were housed in bedded cages. Arterial blood was collected directly into borosilicate vials (at 4° C.) containing heparin as anticoagulant. Once collected, blood samples were centrifuged, supernatant plasma was removed and stored frozen (−80° C.) until analysis by LC-MS. A summary of the bioanalytical method and assay validation details is included in Tables 14 and 15.
Plasma concentration versus time data were analysed using non-compartmental methods (PKSolver Version 2.0). Standard calculations for each pharmacokinetic parameter are listed below.

With `CC1(C)NC(=O)N(c2ccc(F)c(C(C)(F)F)c2)C1=O` [Compound IC, 3-(3-(1,1-difluoroethyl)-4-fluorophenyl)-5,5-dimethylimidazolidine-2,4-dione] the CLint [1] was <1 μL/min/10^6, the CLint [2] was <1.8 μL/min/10^6 and the CLint [3] was <1 μL/min/10^6. The chromatographic logD [4] was 2.6, the fraction unbound [5] was 0.36 and the ED50 ([6]; adult stage, read-out: S. mansoni ED50, adult) was 20 mg/kg. For the same compound, the ED50 ([6]; juvenile stage, read-out: S. mansoni ED50, juvenile) was 23 mg/kg, the IC50 [7] was > 20 µM and the IC50 [8] was > 20 µM. It also gave a clearance ([9]; male, Swiss outbred, mouse, in vivo, iv, 1 mg/kg, mice, IV, mean dose 1.0 mg/kg, read-out: Plasma CL) of 1.96 mL/min/kg, an AUC(0-t) ([9]; male, Swiss outbred, mouse, in vivo, 100 mg/kg PO in mice, read-out: AUC0-last) of 1560 µg·h/mL and a Cmax ([9]; male, Swiss outbred, mouse, in vivo, 100 mg/kg PO in mice, read-out: Cmax) of 40000 ng/mL. It also gave an AUC(0-t) ([9]; male, Swiss outbred, mouse, in vivo, mice, IV, mean dose 1.0 mg/kg, read-out: Plasma AUC0-48 h) of 8.48 µg·h/mL, an AUC(0-inf) ([9]; male, Swiss outbred, mouse, in vivo, mice, IV, mean dose 1.0 mg/kg, read-out: Plasma AUC0-inf) of 8520 ng·h/mL and a half-life ([9]; male, Swiss outbred, mouse, plasma, mice, IV, mean dose 1.0 mg/kg, read-out: Apparent t1/2 (converted)) of 534 min. It also gave a PlasmaVSS ([9]; mice, IV, mean dose 1.0 mg/kg) of 1.64 L/kg, a fraction unbound [10] of 0.38 and a microsomal CLint [11] of 7 µL/min/mg. The “Plasma Concentration” value ([12]; 0.17 h, individual rats) was 1292 ng/mL and 1300 ng/mL and 908 ng/mL, the “Plasma Concentration” value ([12]; 0.17 h, mean) was 1167 ng/mL and the “Plasma Concentration” value ([12]; 1.17 h, individual rats) was 728 ng/mL and 549 ng/mL and 529 ng/mL. For the same compound, the “Plasma Concentration” value ([12]; 1.17 h, mean) was 602 ng/mL, the “Plasma Concentration” value ([12]; 2.17 h, individual rats) was 701 ng/mL and 669 ng/mL and 469 ng/mL and the “Plasma Concentration” value ([12]; 2.17 h, mean) was 613 ng/mL. For the same compound, the “Plasma Concentration” value ([12]; 4.17 h, individual rats) was 640 ng/mL and 662 ng/mL and 420 ng/mL, the “Plasma Concentration” value ([12]; 4.17 h, mean) was 574 ng/mL and the “Plasma Concentration” value ([12]; 7.17 h, individual rats) was 569 ng/mL and 641 ng/mL and 493 ng/mL. The “Plasma Concentration” value ([12]; 7.17 h, mean) was 568 ng/mL, the “Plasma Concentration” value ([12]; 12.17 h, individual rats) was 545 ng/mL and 473 ng/mL and 480 ng/mL and the “Plasma Concentration” value ([12]; 12.17 h, mean) was 499 ng/mL. For the same compound, the “Plasma Concentration” value ([12]; 24.17 h, individual rats) was 340 ng/mL and 403 ng/mL and 268 ng/mL, the “Plasma Concentration” value ([12]; 24.17 h, mean) was 337 ng/mL and the “Plasma Concentration” value ([12]; 36.17 h, individual rats) was 215 ng/mL and 266 ng/mL and 216 ng/mL. For the same compound, the “Plasma Concentration” value ([12]; 36.17 h, mean) was 232 ng/mL, the “Plasma Concentration” value ([12]; 48.17 h, individual rats) was 125 ng/mL and 170 ng/mL and 97 ng/mL and the “Plasma Concentration” value ([12]; 48.17 h, mean) was 130 ng/mL. For the same compound, the “Plasma Concentration” value ([12]; 72.17 h, individual rats) was 46.8 ng/mL and 62.2 ng/mL and 33.5 ng/mL, the “Plasma Concentration” value ([12]; 72.17 h, mean) was 47.5 ng/mL and the “Plasma Concentration” value ([12]; 96.17 h, individual rats) was 11.5 ng/mL and 28.1 ng/mL and 13.6 ng/mL. The “Plasma Concentration” value ([12]; 96.17 h, mean) was 17.7 ng/mL, the “Plasma Concentration” value ([12]; 120.17 h, individual rats) was 3.1 ng/mL and 7.0 ng/mL and 2.6 ng/mL and the “Plasma Concentration” value ([12]; 120.17 h, mean) was 4.2 ng/mL. The “Plasma Concentration” value ([12]; 144.17 h, individual rats) was 3.0 ng/mL, the “Plasma Concentration” value ([12]; 144.17 h, mean) was 3.0 ng/mL and the clearance ([12]; individual rats, read-out: Blood CL) was 0.664 mL/min/kg. For the same compound, the Vd ([12]; individual rats, read-out: Blood Vss) was 0.948 L/kg, the AUC ([12]; individual rats) was 20900 ng·h/mL and the clearance ([12]; individual rats, read-out: Plasma CL) was 0.797 mL/min/kg. The Vd ([12]; individual rats, read-out: Plasma Vss) was 1.14 L/kg, the AUC ([12]; mean (n = 3)) was 20600 ng·h/mL and the clearance ([12]; mean (n = 3), read-out: Plasma CL) was 0.825 mL/min/kg.
